These results are taken from patent US20180099931A1 (AbbVie S.à.r.l., priority 2016, published 2018).

This experiment deals with T1, F508delCFTR (Homo sapiens, UniProt P13569, DEL508-508).
T1 construct: expressed in transfected cells; host or cells: CFBE41o- human lung-derived epithelial cells (CFBE4lo-F508delCFTR-HRP), doxycycline-inducible
Nature of the experiment: Cell Surface Expression-Horse Radish Peroxidase (CSE-HRP) Assay.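 On Maximum % activity (with co-corrector): co-corrector and positive control are both the same reference corrector at 2 µM.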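 On Maximum % activity (without co-corrector): percent of the 2 µM on-plate positive control corrector response above DMSO.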 It counts as cell-based. To be noted: for Emax: read-out: Maximum % activity (without co-corrector). How it is done: Cell Surface Expression-Horse Radish Peroxidase (CSE-HRP) Assay
The development was achieved by expressing the F508delCFTR mutation along with a horseradish peroxidase (HRP) in the fourth exofacial loop, and then measuring the HRP activity using luminescence readout from these cells, CFBE4lo-F508delCFTR-HRP, that were incubated overnight with the test corrector compounds, either without or with the co-corrector. […] The test compounds were then added either without or with a co-corrector at the required concentrations and further incubated for 18-24 hours at 33° C. The highest concentration tested was 20 μM with an 8-point concentration response curve using a 3-fold dilution in both the test compound without or with the co-corrector. Three replicate plates were run to determine one EC50. All plates contained negative controls (dimethyl sulfoxide, DMSO) and positive control (2 μM of 3-[(2R,4R)-4-({[1-(2,2-difluoro-1,3-benzodioxol-5-yl)cyclopropyl]carbonyl}amino)-7-methoxy-3,4-dihydro-2H-chromen-2-yl]benzoic acid) as well as on-plate concentration response of the positive control. […] The raw counts from the experiment were analyzed using Accelrys® Assay Explorer v3.3.
1−[3*SDPositive Control+3*SDNegative Control/Absolute(MeanPositive Control−MeanNegative Control)]
wherein “SD” is standard deviation.
The % activity measured at each of the 8 test concentrations of the test compound added either without or with a co-corrector (2 μM of 3-[(2R,4R)-4-({[1-(2,2-difluoro-1,3-benzodioxol-5-yl)cyclopropyl]carbonyl}amino)-7-methoxy-3,4-dihydro-2H-chromen-2-yl]benzoic acid) was normalized to the on-plate positive control using the following formulae:
% activity(Test compound without co-corrector)=[(test compound without co-corrector response−DMSO response)/(positive control response−DMSO response)]*100
% activity(Test compound with co-corrector)=[(test compound with co-corrector response−DMSO response)/(positive control response−DMSO response)]*100
The maximum % activity achieved for the test compound either without or with a co-corrector at any tested concentration is presented in Table 4 along with the respective EC50's calculated using the following general sigmoidal curve with variable Hill slope equation (described as Model 42 in the Accelrys® Assay Explorer v3.3 software):
General sigmoidal curve with concentration, response, top, bottom, EC50 and Hill slope. This model describes a sigmoidal curve with an adjustable baseline, a. The equation can be used to fit curves where response is either increasing or decreasing with respect to the independent variable, “x”.
“x” is a concentration of drug under test. “y” is the response. “a” is the maximum response, and “d” is the minimum response “c” is the inflection point (EC50) for the curve. That is, “y” is halfway between the lower and upper asymptotes when x=c. “b” is the slope-factor or Hill coefficient. The sign of b is positive when the response increases with increasing dose and is negative when the response decreases with increasing dose (inhibition).

Setting [1] is: test compound without co-corrector, maximum at any tested concentration, normalized to on-plate positive control.
Where [2] appears, read: test compound without co-corrector, read-out: EC50 (without co-corrector).
[3] abbreviates: with co-corrector (2 μM of 3-[(2R,4R)-4-({[1-(2,2-difluoro-1,3-benzodioxol-5-yl)cyclopropyl]carbonyl}amino)-7-methoxy-3,4-dihydro-2H-chromen-2-yl]benzoic acid), maximum at any tested concentration, normalized to on-plate positive control.
Where [4] appears, read: with co-corrector (2 μM of 3-[(2R,4R)-4-({[1-(2,2-difluoro-1,3-benzodioxol-5-yl)cyclopropyl]carbonyl}amino)-7-methoxy-3,4-dihydro-2H-chromen-2-yl]benzoic acid), read-out: EC50 (with co-corrector).
The mark [5] stands for this setting: with co-corrector (2 μM), maximum at any tested concentration, normalized to on-plate positive control.
[6] abbreviates: without co-corrector, maximum at any tested concentration, normalized to on-plate positive control.
Where [7] appears, read: CSE-HRP, test compound without co-corrector, read-out: EC50 (without co-corrector).
[8] abbreviates: CSE-HRP, with co-corrector (2 μM of 3-[(2R,4R)-4-({[1-(2,2-difluoro-1,3-benzodioxol-5-yl)cyclopropyl]carbonyl}amino)-7-methoxy-3,4-dihydro-2H-chromen-2-yl]benzoic acid), read-out: EC50 (with co-corrector).
[9] abbreviates: CSE-HRP, with co-corrector (2 μM), maximum at any tested concentration, normalized to on-plate positive control.
Setting [10] is: CSE-HRP, without co-corrector, maximum at any tested concentration, normalized to on-plate positive control.

SMILES strings stand for the structures. pEC50: −log10 of the molar value. Where two headings read alike, the source gives them in different places.

T1 sequence (P13569 with tags, fused parts or gaps DEL508-508): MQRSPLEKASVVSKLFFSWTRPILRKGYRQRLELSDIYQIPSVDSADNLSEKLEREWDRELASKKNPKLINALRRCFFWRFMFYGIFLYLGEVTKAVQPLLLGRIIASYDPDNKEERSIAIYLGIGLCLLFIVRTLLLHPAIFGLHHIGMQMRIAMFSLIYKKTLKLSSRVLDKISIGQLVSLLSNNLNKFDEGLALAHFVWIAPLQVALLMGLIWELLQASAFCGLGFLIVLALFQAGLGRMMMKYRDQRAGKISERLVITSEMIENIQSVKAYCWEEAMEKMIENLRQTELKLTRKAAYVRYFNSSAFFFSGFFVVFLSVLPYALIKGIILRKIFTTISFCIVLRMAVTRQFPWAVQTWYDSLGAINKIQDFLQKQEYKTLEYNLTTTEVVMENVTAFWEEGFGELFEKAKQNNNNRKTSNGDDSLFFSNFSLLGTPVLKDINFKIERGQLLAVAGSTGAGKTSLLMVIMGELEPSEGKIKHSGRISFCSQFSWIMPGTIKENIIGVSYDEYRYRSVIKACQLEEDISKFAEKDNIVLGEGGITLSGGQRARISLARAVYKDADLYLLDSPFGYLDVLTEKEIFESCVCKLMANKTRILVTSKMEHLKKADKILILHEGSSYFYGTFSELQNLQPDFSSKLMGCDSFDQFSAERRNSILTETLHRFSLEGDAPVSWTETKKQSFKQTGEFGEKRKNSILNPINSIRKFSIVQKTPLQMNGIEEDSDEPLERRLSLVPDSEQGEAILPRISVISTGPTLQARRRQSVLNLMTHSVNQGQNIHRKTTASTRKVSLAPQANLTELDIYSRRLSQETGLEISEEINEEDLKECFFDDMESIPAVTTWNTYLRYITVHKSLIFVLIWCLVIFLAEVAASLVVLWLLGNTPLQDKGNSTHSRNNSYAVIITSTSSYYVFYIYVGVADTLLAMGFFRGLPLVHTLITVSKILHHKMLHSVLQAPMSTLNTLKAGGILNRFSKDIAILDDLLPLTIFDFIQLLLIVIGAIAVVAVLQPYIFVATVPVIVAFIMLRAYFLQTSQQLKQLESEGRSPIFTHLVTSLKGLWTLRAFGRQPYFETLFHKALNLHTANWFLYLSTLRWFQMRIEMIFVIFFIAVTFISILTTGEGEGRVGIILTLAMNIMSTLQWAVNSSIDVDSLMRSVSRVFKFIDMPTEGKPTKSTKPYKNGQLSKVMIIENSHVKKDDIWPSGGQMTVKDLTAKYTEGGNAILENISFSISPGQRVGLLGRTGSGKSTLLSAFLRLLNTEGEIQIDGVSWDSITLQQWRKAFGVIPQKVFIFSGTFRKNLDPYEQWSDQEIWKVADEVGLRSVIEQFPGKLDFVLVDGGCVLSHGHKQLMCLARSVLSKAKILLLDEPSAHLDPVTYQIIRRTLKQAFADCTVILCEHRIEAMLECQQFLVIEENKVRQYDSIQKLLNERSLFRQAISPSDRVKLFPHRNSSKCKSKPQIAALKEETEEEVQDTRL

As a reminder, the pEC50 is the EC50 on a negative log10 scale, so that one unit is a factor of ten. With `COc1ncc(C2CCC2)cc1CN[C@H]1[C@H](C(C)(C)C)[C@@H](C(=O)O)N(C(=O)C2CCCC(F)(F)C2)[C@H]1c1ccccc1` (stereo partly shown) [II-492], under setting [1], the Emax is more than 200%. The pEC50 is 5.00 to 6.00 under setting [2] and more than 6.00 under setting [4]. The “Maximum % activity (with co-corrector)” value under setting [3] is “+++ (≥350)”.
On to `COc1ncc(Cc2cccc(C#N)c2)cc1CN[C@H]1[C@H](C(C)(C)C)[C@@H](C(=O)O)N(C(=O)C2CCCCC2)[C@H]1c1ccccc1` [Example I-77], for which the pEC50 is 5.00 to 6.00 under setting [2] and 5.00 to 6.00 under setting [4]. Moreover, the “Maximum % activity (with co-corrector)” value under setting [5] is reported as “+++ (≥350)”. Further, under setting [6], the Emax fell in the range of 100 to 200%.
In the case of `COc1ncc(C(F)(F)F)cc1N[C@H]1[C@H](C(C)(C)C)[C@@H](C(=O)O)N(C(=O)[C@H]2CCCCO2)[C@H]1c1cccnc1N(C)C` [III-213], the Emax under setting [1] is less than 100%. The pEC50 under setting [2] was less than 5.00 and the pEC50 under setting [4] is less than 5.00. Besides, the “Maximum % activity (with co-corrector)” value under setting [5] was “+ (<150)”.
Regarding `COc1ccc(C(C)(C)C)cc1CN[C@H]1[C@H](C(C)(C)C)[C@@H](C(=O)O)N(C(=O)Cc2ncc(Cl)cc2F)[C@H]1c1ccccc1` [II-236], the pEC50 by setting is: under setting [7], 5.00 to 6.00; under setting [8], more than 6.00. The “Maximum % activity (with co-corrector)” value under setting [9] was “+++ (≥350)”. The Emax under setting [10] was more than 200%.
For `COc1ncc(CC(C)C)cc1CN[C@H]1[C@H](C(C)(C)C)[C@@H](C(=O)O)N(C(=O)C2CCCCC2)[C@H]1c1ccccc1` [Example I-76], the pEC50 reads like this: under setting [2], 5.00 to 6.00; under setting [4], more than 6.00. In addition, under setting [5], the “Maximum % activity (with co-corrector)” value is reported as “+++ (≥350)”. Further, the Emax under setting [6] is more than 200%.
`COc1ccc(C(C)(C)C)cc1CN[C@H]1[C@H](C(C)(C)C)[C@@H](C(=O)O)N(C(=O)Cc2ccc(O)cc2)[C@H]1c1ccccc1` [II-195]: the pEC50 was 5.00 to 6.00 under setting [7] and 5.00 to 6.00 under setting [8]. Moreover, under setting [9], the “Maximum % activity (with co-corrector)” value is recorded as “+++ (≥350)”. Also, the Emax under setting [10] was more than 200%.
With `COc1ccc(C(C)(C)C)cc1CN[C@@H]1[C@@H](C(C)(C)C)[C@@H](C(=O)O)N(C(=O)[C@H](OC)c2ccccc2)[C@H]1c1ccccc1` [II-393], the Emax under setting [1] was less than 100%. Further, the pEC50 was 5.00 to 6.00 under setting [2] and 5.00 to 6.00 under setting [4]. Besides, under setting [3], the “Maximum % activity (with co-corrector)” value was “++ (≥150 and <350)”.
On to `CC(C)(C)[C@@H]1[C@@H](NCc2ccccc2OC(F)F)[C@@H](c2ccccc2)N(C(=O)C2CCCCC2)[C@H]1C(=O)O` (racemic) [III-7], for which the Emax under setting [1] is less than 100%. In addition, the pEC50 under setting [2] was 5.00 to 6.00 and the pEC50 under setting [4] was 5.00 to 6.00. Moreover, under setting [3], the “Maximum % activity (with co-corrector)” value is given as “+++ (≥350)”.
For `COc1ncc(C2CC2)cc1CN[C@H]1[C@H](C(C)(C)C)[C@@H](C(=O)O)N(C(=O)[C@@H]2CCCCO2)[C@H]1c1ccccc1C(C)C` [Example 115, (2S,3S,4S,5S)-3-tert-butyl-4-{[(5-cyclopropyl-2-methoxypyridin-3-yl)methyl]amino}-1-[(2S)-oxane-2-carbonyl]-5-[2-(propan-2-yl)phenyl]pyrrolidine-2-carboxylic acid], the pEC50 is 5.00 to 6.00 under setting [2] and more than 6.00 under setting [4]. Also, under setting [5], the “Maximum % activity (with co-corrector)” value is on record as “+++ (≥350)”. The Emax under setting [6] was more than 200%.
Turning to `COc1ncc(C(F)(F)F)cc1CN[C@H]1[C@H](C(C)(C)C)[C@@H](C(=O)O)N(C(=O)C2CC(C)CC(C)C2)[C@H]1c1ccccc1` (stereo partly shown) [III-201], the Emax under setting [1] was in the range of 100 to 200%. For the same compound, the pEC50 reads like this: under setting [2], more than 6.00; under setting [4], more than 6.00. Moreover, the “Maximum % activity (with co-corrector)” value under setting [5] is “+++ (≥350)”.
Turning to `COc1ccc(S(F)(F)(F)(F)F)cc1CN[C@H]1[C@H](C(C)(C)C)[C@@H](C(=O)O)N(C(=O)OC(C)C)[C@H]1c1ccccc1` [II-535], the Emax under setting [1] is more than 200%. For the same compound, the pEC50 is 5.00 to 6.00 under setting [2] and 5.00 to 6.00 under setting [4]. Also, under setting [3], the “Maximum % activity (with co-corrector)” value is recorded as “+++ (≥350)”.
Take `COc1ccc(C(F)(F)F)cc1CN[C@@H]1[C@@H](C(C)(C)C)[C@H](C(=O)O)N(C(=O)[C@@H]2CCC[C@@H](OC)C2)[C@@H]1c1ccccc1` (racemic) [II-36]: the pEC50 was 5.00 to 6.00 under setting [7] and 5.00 to 6.00 under setting [8]. For the same compound, under setting [9], the “Maximum % activity (with co-corrector)” value was “+++ (≥350)”. Under setting [10], the Emax is more than 200%.
As to `COc1ccc(C(C)(C)C)cc1CN[C@H]1[C@H](C(C)(C)C)[C@@H](C(=O)O)N(C(=O)C2CCCCC2)[C@H]1c1ccccc1` [Example 7, (2S,3S,4S,5S)-3-tert-butyl-4-{[(5-tert-butyl-2-methoxyphenyl)methyl]amino}-1-(cyclohexanecarbonyl)-5-phenylpyrrolidine-2-carboxylic acid], the pEC50 under setting [2] was more than 6.00 and the pEC50 under setting [4] was more than 6.00. The “Maximum % activity (with co-corrector)” value under setting [5] is listed as “+++ (≥350)”. For the same compound, the Emax under setting [6] is more than 200%.
Consider `COc1ccc(C(C)(C)C)cc1CN[C@H]1[C@H](C(C)(C)C)[C@@H](C(=O)O)N(C(=O)C(C)n2cc(Cl)c(C)n2)[C@H]1c1ccccc1` (single isomer, unassigned) [III-182], for which the pEC50 is, setting by setting: under setting [7], 5.00 to 6.00; under setting [8], 5.00 to 6.00. Further, the “Maximum % activity (with co-corrector)” value under setting [9] is “+++ (≥350)”. Moreover, the “Maximum % activity (without co-corrector)” value under setting [10] was “+++ (≥200)”.
With `COc1ccc(C2(C)CCC2)cc1CN[C@H]1[C@H](C(C)(C)C)[C@@H](C(=O)O)N(C(=O)[C@H]2CCCCO2)[C@H]1c1cccnc1OC` [III-234], the Emax under setting [1] was in the range of 100 to 200%. For the same compound, the pEC50 reads like this: under setting [2], 5.00 to 6.00; under setting [4], 5.00 to 6.00. Further, under setting [5], the “Maximum % activity (with co-corrector)” value is given as “+++ (≥350)”.
Turning to `COc1ccc(Cl)cc1CN[C@@H]1[C@@H](C(C)(C)C)[C@H](C(=O)O)N(C(=O)[C@H](OC)c2ccccc2)[C@@H]1c1ccccc1N(C)C` [III-99], the Emax under setting [1] was less than 100%. The negative logarithm of the EC50 (pEC50) runs as follows: under setting [2], less than 5.00; under setting [4], 5.00 to 6.00. Under setting [5], the “Maximum % activity (with co-corrector)” value was “++ (≥150 and <350)”.
Regarding `COc1ncc(C(F)(F)F)cc1CN[C@H]1[C@H](C(C)(C)C)[C@@H](C(=O)O)N(C(=O)C2CCCCC2)[C@H]1c1cccc2c1OC(C)(C)C2` [Example 118, (2S,3S,4S,5S)-3-tert-butyl-1-(cyclohexanecarbonyl)-5-(2,2-dimethyl-2,3-dihydro-1-benzofuran-7-yl)-4-({[2-methoxy-5-(trifluoromethyl)pyridin-3-yl]methyl}amino)pyrrolidine-2-carboxylic acid], the pEC50 reads like this: under setting [2], more than 6.00; under setting [4], more than 6.00. Under setting [5], the “Maximum % activity (with co-corrector)” value is listed as “+++ (≥350)”. Also, under setting [6], the Emax lay in the range of 100 to 200%.
For `CC(C)(C)[C@H]1[C@H](NCc2ccccc2C(F)F)[C@H](c2ccccc2)N(C(=O)C2CCCCC2)[C@@H]1C(=O)O` [III-139], the Emax under setting [1] was less than 100%. For the same compound, the pEC50 under setting [2] is more than 6.00 and the negative logarithm of the EC50 (pEC50) under setting [4] was more than 6.00. Besides, under setting [5], the “Maximum % activity (with co-corrector)” value was “++ (≥150 and <350)”.
Turning to `COc1ccc(C(C)(C)C)cc1CN[C@H]1[C@H](C(C)(C)C)[C@@H](C(=O)O)N(C(=O)C2CCC2)[C@H]1c1ccccc1` [II-313], the pEC50 runs as follows: under setting [7], 5.00 to 6.00; under setting [8], 5.00 to 6.00. Also, the “Maximum % activity (with co-corrector)” value under setting [9] is given as “+++ (≥350)”. Under setting [10], the Emax is more than 200%.
